Reference: PMC8037182, “Solvothermal Synthesis of Multiple Dihydropyrimidinones at a Time as Inhibitors of Eg5” (Molecules, 2021)

Columns and labels:
T24 cell line = assay: Cytotoxicity MTS assay, T24 cell line; type: cell-based; conditions: for OD490 Mean / OD490 Well 1 / OD490 Well 2 / OD490 Well 3: T24 cell line, first assay;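 on OD490 Mean: blank control wells received 0.025% DMSO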;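 on OD490 Well 1: blank control wells received 0.025% DMSO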;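 on OD490 Well 2: blank control wells received 0.025% DMSO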;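 on OD490 Well 3: blank control wells received 0.025% DMSO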
Procedure, shortened: (§1)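 MTS antiproliferation; 1000 cells/well, 24 h pre-incubation; compound 0.5–100 µM final, 24 h exposure; vehicle 0.025% DMSO; monastrol positive control; MTS 2 h, 37 °C, 5% CO2; A490; IC50 by non-linear regression of % viability vs concentration; three independent duplicate runs.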

L929 cell line = assay: Cytotoxicity MTS assay, L929 cell line; type: cell-based; conditions: for OD490 values, Mean / OD490 values, Well 1 / OD490 values, Well 2 / OD490 values, Well 3: L929 cell line
Procedure, shortened: as §1

## COC(=O)c1[nH]c(C2NC(=S)NC(C)=C2C(=O)c2ccccc2)c(C(=O)OC)c1C (centres unmarked) [D14]
T24 cell line; MTS assay, 24 h exposure
  IC50: > 150 µM
T24 cell line; 0.5μM
  OD490 Mean: 1.1342
  OD490 Well 1: 1.0996
  OD490 Well 2: 1.1541
  OD490 Well 3: 1.1489
T24 cell line; 1μM
  OD490 Mean: 1.3301
  OD490 Well 1: 1.2266
  OD490 Well 2: 1.4478
  OD490 Well 3: 1.3160
T24 cell line; 10μM
  OD490 Mean: 1.2661
  OD490 Well 1: 1.2502
  OD490 Well 2: 1.2630
  OD490 Well 3: 1.2850
T24 cell line; 25μM
  OD490 Mean: 1.2456
  OD490 Well 1: 1.2555
  OD490 Well 2: 1.2167
  OD490 Well 3: 1.2646
T24 cell line; 50μM
  OD490 Mean: 1.2309
  OD490 Well 1: 1.2932
  OD490 Well 2: 1.1700
  OD490 Well 3: 1.2295
T24 cell line; 100μM
  OD490 Mean: 1.4227
  OD490 Well 1: 1.3732
  OD490 Well 2: 1.4320
  OD490 Well 3: 1.4629
L929 cell line; 1μM, first assay
  OD490 values, Mean: 1.2798
  OD490 values, Well 1: 1.2932
  OD490 values, Well 2: 1.2928
  OD490 values, Well 3: 1.2533
L929 cell line; 1μM, second assay
  OD490 values, Mean: 1.4907
  OD490 values, Well 1: 1.4325
  OD490 values, Well 2: 1.3987
  OD490 values, Well 3: 1.6410
L929 cell line; 1μM, third assay
  OD490 values, Mean: 1.6023
  OD490 values, Well 1: 1.5874
  OD490 values, Well 2: 1.6622
  OD490 values, Well 3: 1.5574
L929 cell line; 1.5μM, first assay
  OD490 values, Mean: 1.2729
  OD490 values, Well 1: 1.2563
  OD490 values, Well 2: 1.3177
  OD490 values, Well 3: 1.2448
L929 cell line; 1.5μM, second assay
  OD490 values, Mean: 1.4657
  OD490 values, Well 1: 1.4258
  OD490 values, Well 2: 1.4302
  OD490 values, Well 3: 1.5412
L929 cell line; 1.5μM, third assay
  OD490 values, Mean: 1.5678
  OD490 values, Well 1: 1.5254
  OD490 values, Well 2: 1.5988
  OD490 values, Well 3: 1.5793
L929 cell line; 10μM, first assay
  OD490 values, Mean: 1.2551
  OD490 values, Well 1: 1.2039
  OD490 values, Well 2: 1.3650
  OD490 values, Well 3: 1.1963
L929 cell line; 10μM, second assay
  OD490 values, Mean: 1.4237
  OD490 values, Well 1: 1.3365
  OD490 values, Well 2: 1.5325
  OD490 values, Well 3: 1.4022
L929 cell line; 10μM, third assay
  OD490 values, Mean: 1.5660
  OD490 values, Well 1: 1.5254
  OD490 values, Well 2: 1.6200
  OD490 values, Well 3: 1.5525
L929 cell line; 25μM, first assay
  OD490 values, Mean: 1.1670
  OD490 values, Well 1: 1.1764
  OD490 values, Well 2: 1.2795
  OD490 values, Well 3: 1.0451
L929 cell line; 25μM, second assay
  OD490 values, Mean: 1.2993
  OD490 values, Well 1: 1.3065
  OD490 values, Well 2: 1.2547
  OD490 values, Well 3: 1.3366
L929 cell line; 25μM, third assay
  OD490 values, Mean: 1.5294
  OD490 values, Well 1: 1.4424
  OD490 values, Well 2: 1.5235
  OD490 values, Well 3: 1.6222
L929 cell line; 50μM, first assay
  OD490 values, Mean: 1.0826
  OD490 values, Well 1: 0.8914
  OD490 values, Well 2: 1.1616
  OD490 values, Well 3: 1.1948
L929 cell line; 50μM, second assay
  OD490 values, Mean: 1.1536
  OD490 values, Well 1: 1.1241
  OD490 values, Well 2: 1.2101
  OD490 values, Well 3: 1.1265
L929 cell line; 50μM, third assay
  OD490 values, Mean: 1.3855
  OD490 values, Well 1: 1.3665
  OD490 values, Well 2: 1.3874
  OD490 values, Well 3: 1.4025
L929 cell line; 100μM, first assay
  OD490 values, Mean: 1.0433
  OD490 values, Well 1: 0.7506
  OD490 values, Well 2: 1.0796
  OD490 values, Well 3: 1.2998
L929 cell line; 100μM, second assay
  OD490 values, Mean: 1.1143
  OD490 values, Well 1: 1.1121
  OD490 values, Well 2: 1.1285
  OD490 values, Well 3: 1.1022
L929 cell line; 100μM, third assay
  OD490 values, Mean: 1.3039
  OD490 values, Well 1: 1.3251
  OD490 values, Well 2: 1.3325
  OD490 values, Well 3: 1.2542
L929 cell line; MTS assay, 24 h exposure, ordinary fibroblast, not cancer cells
  IC50: 137 µM
